Reference: publication PMC11219871, “Epigenetic-based differentiation therapy for Acute Myeloid Leukemia” (Nature Communications, 2024)
Values joined by “and” are separate entries in the source; they are usually repeats but may differ in a detail not shown here. Identical values can stand only once. Like-named read-outs stand apart in the source and are kept apart here.

Experiments:
G9a = molecular target: T1, G9a (Homo sapiens, UniProt Q96KQ7); test: Epigenetic panel (BPS Bioscience); G9a TR-FRET IC50; assay type: biochemical
T1 sequence (Q96KQ7 1-1210): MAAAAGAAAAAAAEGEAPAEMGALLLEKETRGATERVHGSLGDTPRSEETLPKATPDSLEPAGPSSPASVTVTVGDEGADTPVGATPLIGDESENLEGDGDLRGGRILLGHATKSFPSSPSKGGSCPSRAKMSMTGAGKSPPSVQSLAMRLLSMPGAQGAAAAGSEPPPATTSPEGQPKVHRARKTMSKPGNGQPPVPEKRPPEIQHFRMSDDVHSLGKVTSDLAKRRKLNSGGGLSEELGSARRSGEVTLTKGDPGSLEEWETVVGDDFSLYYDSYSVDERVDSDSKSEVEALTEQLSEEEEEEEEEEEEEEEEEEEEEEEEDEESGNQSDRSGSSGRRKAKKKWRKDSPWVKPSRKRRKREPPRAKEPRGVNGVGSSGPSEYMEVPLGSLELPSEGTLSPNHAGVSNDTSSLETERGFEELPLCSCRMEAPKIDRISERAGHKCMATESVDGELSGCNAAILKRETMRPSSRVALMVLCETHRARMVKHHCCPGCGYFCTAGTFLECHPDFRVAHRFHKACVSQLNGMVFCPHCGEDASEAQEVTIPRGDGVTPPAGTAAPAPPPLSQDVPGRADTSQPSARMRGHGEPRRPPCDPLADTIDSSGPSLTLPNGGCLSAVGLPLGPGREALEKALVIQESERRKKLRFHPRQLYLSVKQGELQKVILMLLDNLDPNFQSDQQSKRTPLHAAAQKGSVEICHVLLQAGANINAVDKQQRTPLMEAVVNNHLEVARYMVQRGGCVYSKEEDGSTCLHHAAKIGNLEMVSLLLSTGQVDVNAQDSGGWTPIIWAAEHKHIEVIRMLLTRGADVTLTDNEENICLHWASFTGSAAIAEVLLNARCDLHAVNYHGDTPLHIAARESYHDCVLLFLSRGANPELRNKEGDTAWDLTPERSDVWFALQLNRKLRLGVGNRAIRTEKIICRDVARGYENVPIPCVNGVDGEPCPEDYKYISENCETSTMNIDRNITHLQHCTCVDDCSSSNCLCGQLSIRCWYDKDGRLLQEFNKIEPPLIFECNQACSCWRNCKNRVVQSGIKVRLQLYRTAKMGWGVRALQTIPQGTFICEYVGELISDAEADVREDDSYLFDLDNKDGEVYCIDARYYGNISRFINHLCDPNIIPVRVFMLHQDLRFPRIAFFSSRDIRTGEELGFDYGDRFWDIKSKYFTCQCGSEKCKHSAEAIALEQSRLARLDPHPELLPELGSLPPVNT
Description: (§1) DNMT1 and G9a IC50 values were measured using time-resolved fluorescence energy transfer assays, as described previously[18],[25],[26].
(§2) Binding experiments were performed in duplicate at a concentration of 10 μM.

DNMT1 = DNMT1 (Homo sapiens, UniProt P26358); test: Epigenetic panel (BPS Bioscience); DNMT1 TR-FRET IC50; assay type: biochemical
Description: as §1, §2

HDAC2 = HDAC2 (Homo sapiens, UniProt Q92769); test: HDAC enzymatic assay, fluorescence-labeled substrate; assay type: biochemical; details: for inhibition at 10 µM: source data of Fig. 1B
HDAC3 = HDAC3 (Homo sapiens, UniProt O15379); test: as above; assay type: biochemical; details: for inhibition at 10 µM: source data of Fig. 1B
[1] = system: global 5-methylcytosine levels in HL-60, ML-2, MV4-11 and MOLM-13 cell lines; test: Dot blot; assay type: cell-based, human; details: HL-60, 270 nM CM-444 or 300 nM CM-1758, 48 h
Description: DNA purity and concentration were measured using a NanoDrop spectrophotometer (Thermo Scientific). A 500 ng amount of genomic DNA was loaded onto a nitrocellulose membrane (Amersham Hybond_N+, RPN203B, GE Healthcare), pre-wetted in 6X SSC for 10 min, using the Bio-Dot microfiltration apparatus (Cat No 170-6545, Bio-Rad) following the manufacturer’s instructions. Next, the membrane was incubated with 2X SSC for 5 min and cross-linked for 2 h at 80 °C. The membrane, after being blocked with Tropix I-block blocking reagent (Cat No AI300, Tropix) in PBS with 0.1% Tween 20 and 0.02 NaN3, was incubated with the primary antibody against 5-methylcytosine (monoclonal antibody 5-methylcytidine, Cat No BI-MECY-1000, Eurogentec) diluted 1:4000 o/n at 4 °C and then with alkaline phosphatase-conjugated secondary antibody. […] To ensure equal loading of total DNA on the membrane, the same blot was stained with 0.02% methylene blue in 0.3 M sodium acetate (pH 5.2).

[2] = Liver microsomal stability; assay type: in vitro ADME; details: read-out: Liver Microsomal Stability Estimation T1/2
Description: This study was conducted at Wuxi (http://www.wuxi.com/). […] A 5-μL aliquot of stock solution of test compound (10 mM; 100% DMSO) was diluted in 495 μL of […] (final concentration of 100 μM, 99% MeOH). Then, 50 μL of this intermediate solution was diluted in 450 μL of 100 mM potassium phosphate buffer to a concentration of 10 μM (working solution, 9.9% MeOH). The β-nicotinamide adenine dinucleotide phosphate reduced form (NADPH) regenerating system also contained tetrasodium salt, NADPH•4Na (Sigma, Cat.# No.00616). Human liver microsomes were obtained from Corning (Cat.#452117), and C57 mouse liver microsomes from Xenotech (Cat.#M5000), at a final concentration of 0.5 mg protein/mL. A volume of 10 μL of working solution of test and control compounds (testosterone, diclofenac and propafenone) and 80 μL/well microsome solution were added to a 96-well plate and incubated for 10 min at 37 °C. The reaction was started by the addition of 10 μL of NADPH regenerating system and stopped by the addition of 300 μL of stop solution (acetonitrile at 4 °C, including 100 ng/mL tolbutamide and 100 ng/mL of labetalol as internal standard) at different incubation times (0, 5, 10, 20, 30, and 60 min). Then, the samples were shaken for 10 min and centrifuged at 1699 g for 20 min at 4 °C. An aliquot of supernatant (100 μL) was transferred from each well and mixed with 300 μL of ultra-pure water before submitting to LC-MS/MS analysis. Concentrations of test and control compounds were quantified by LC-MS/MS using a peak area ratio of analyte/internal standard, and the percent loss of the parent compound was calculated at each time point to determine the half-life (t1/2, min). Experiments were performed in duplicate.

[3] = system: MOLM-13 i.v. in BALB/cA Rag2-/-γc-/- mice; test: Intravenous xenograft model (survival, CD11b in blood, body weight); assay type: in vivo, mouse; details: for CD11b in blood samples: MOLM-13 i.v., 10 mg/kg i.p.; for CD11b (%): blood samples of mice engrafted intravenously with MOLM-13 cells, individual mice

Chain of HDAC3 (O15379 whole entry): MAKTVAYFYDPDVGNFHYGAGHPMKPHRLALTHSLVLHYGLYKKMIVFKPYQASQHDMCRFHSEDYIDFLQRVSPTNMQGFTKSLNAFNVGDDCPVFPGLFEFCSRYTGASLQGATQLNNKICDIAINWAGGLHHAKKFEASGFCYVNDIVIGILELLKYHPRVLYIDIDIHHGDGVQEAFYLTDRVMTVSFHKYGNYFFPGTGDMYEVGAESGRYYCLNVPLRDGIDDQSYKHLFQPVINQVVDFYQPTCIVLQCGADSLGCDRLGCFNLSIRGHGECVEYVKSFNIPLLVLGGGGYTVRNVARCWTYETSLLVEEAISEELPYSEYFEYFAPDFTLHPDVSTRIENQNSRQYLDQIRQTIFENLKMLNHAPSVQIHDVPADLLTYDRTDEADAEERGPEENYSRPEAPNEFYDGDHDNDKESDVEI
Chain of HDAC3 (Q9Y618 395-489 partner limits assumed): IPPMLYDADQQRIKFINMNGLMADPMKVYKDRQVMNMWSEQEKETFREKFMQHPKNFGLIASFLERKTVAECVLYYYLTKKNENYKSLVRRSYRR
Chain of HDAC2 (Q92769 whole entry): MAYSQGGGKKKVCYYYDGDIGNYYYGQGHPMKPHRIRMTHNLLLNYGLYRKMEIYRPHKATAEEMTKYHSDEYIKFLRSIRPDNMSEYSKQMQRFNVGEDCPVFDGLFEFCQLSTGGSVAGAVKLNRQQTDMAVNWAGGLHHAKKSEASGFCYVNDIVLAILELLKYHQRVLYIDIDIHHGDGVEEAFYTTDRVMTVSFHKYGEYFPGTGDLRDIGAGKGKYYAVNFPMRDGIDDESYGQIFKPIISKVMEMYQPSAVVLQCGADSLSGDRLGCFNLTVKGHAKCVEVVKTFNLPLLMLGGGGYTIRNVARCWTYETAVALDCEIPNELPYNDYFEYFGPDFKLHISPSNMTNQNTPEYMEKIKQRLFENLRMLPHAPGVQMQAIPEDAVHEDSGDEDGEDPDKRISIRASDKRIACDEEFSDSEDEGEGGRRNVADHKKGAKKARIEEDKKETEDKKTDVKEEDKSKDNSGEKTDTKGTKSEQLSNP
Chain of DNMT1 (P26358 whole entry): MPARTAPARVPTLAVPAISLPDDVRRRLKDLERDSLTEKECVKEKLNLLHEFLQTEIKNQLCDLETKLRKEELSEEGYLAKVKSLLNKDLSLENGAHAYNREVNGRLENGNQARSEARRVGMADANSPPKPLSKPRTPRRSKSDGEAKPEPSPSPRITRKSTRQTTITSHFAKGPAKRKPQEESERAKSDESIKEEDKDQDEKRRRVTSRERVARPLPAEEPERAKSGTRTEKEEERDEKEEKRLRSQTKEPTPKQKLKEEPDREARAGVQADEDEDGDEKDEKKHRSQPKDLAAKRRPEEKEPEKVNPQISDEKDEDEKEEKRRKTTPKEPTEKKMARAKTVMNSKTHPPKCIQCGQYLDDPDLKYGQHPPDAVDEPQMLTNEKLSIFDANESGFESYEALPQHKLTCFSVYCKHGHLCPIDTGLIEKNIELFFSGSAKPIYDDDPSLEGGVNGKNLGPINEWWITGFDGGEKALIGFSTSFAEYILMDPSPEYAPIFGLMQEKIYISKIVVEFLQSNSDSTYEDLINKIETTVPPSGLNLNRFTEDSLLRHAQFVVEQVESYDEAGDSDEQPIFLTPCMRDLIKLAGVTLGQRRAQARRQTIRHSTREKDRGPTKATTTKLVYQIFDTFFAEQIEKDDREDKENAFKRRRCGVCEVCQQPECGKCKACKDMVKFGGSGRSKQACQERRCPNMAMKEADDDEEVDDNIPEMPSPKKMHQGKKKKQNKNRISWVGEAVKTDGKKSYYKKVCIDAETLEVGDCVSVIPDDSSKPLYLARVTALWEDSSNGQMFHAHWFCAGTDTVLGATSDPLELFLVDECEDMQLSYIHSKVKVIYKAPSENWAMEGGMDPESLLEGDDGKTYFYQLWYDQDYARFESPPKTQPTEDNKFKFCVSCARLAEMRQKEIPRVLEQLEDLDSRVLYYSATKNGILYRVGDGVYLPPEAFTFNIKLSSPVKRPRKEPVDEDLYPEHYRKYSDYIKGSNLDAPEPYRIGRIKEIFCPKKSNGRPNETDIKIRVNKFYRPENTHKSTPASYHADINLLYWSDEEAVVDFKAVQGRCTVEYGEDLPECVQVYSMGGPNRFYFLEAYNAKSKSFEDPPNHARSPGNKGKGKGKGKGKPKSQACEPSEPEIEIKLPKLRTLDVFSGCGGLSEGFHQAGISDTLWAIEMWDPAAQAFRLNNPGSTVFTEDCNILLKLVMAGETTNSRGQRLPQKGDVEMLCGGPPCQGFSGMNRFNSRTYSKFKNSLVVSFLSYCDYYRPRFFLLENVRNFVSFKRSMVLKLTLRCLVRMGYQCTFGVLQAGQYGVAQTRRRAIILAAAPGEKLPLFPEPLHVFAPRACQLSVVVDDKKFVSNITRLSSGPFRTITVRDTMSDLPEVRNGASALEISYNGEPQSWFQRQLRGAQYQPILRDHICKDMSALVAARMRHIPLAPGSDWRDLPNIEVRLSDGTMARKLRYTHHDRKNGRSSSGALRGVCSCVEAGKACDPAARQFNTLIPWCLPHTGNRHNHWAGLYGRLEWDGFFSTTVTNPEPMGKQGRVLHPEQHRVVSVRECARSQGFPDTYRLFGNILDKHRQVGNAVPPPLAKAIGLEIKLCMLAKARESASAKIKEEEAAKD

SMILES	IC50 (G9a) [nM]	inhibition at 10 µM (G9a) [%]	inhibition at 10 µM (DNMT1) [%]	IC50 (DNMT1; as printed in Fig. 1B, read-out: IC50) [nM]	IC50 (DNMT1; read-out: DNMT1 IC50) [nM]	IC50 (HDAC2) [nM]	inhibition at 10 µM (HDAC2) [%]	inhibition at 10 µM (HDAC3) [%]	5mC level (dot blot) [1]	half-life at 1 µM ([2]; C57, mouse liver microsomes) [min]	half-life at 1 µM ([2]; human liver microsomes) [min]	CD11b in blood samples [3]	CD11b (%) [3]	IC50 (HDAC3) [nM]
COc1cc2nc(-c3ccc(C)o3)cc(NCC3CCN(c4ncc(C(=O)NO)cn4)CC3)c2cc1OC [CM-444, 2-[4-[[[6,7-dimethoxy-2-(5-methyl-2-furyl)-4-quinolyl]amino]methyl]-1-piperidyl]pyrimidine-5-carbohydroxamic acid]	> 10000	0	96	2200	2160	51	90	90	no changes	18.4	28.8	significant induction of CD11b	49.5% and 13.9% and 12.3% and 14% and 28.6% and 15.1% and 19.3% and 15% and 42.6% and 31.9% and 18% and 12.6%	
COc1cc2nc(-c3cc(C)oc3C)cc(NCC3CCN(c4ncc(C(=O)NO)cn4)CC3)c2cc1OC [CM-1758, 2-[4-[[[2-(2,5-dimethyl-3-furyl)-6,7-dimethoxy-4-quinolyl]amino]methyl] -1-piperidyl]pyrimidine-5-carbohydroxamic acid]	> 10000	9	66		22600	31	90	90	no changes	12.5	37.9	significant induction of CD11b	43.5% and 62.1% and 13.7% and 9.45% and 29.6% and 36.3% and 8.98% and 17.9% and 35.4% and 52.9% and 49.9%	14
